# How the values were obtained:
# Chemical stability = format: physicochemical
# [1] = test system: Bacillus subtilis PCI-219; test: Antibacterial activity relative to (-)-spergualin; format: cell-based; settings: relative to (-)-spergualin (3HCl·½H2O)
# Source text: The compound was colorless and syrupy, and its melting point could not be measured clearly. […] The antibacterial activity against Bacillus subtilis PCI-219' was 134 % of that of (-)-spergualin (3HCl·½H2O).
# [2] = Carcinostatic action compared with synthetic 15-deoxyspergualin; settings: compared with 15-deoxyspergualin synthesized previously by condensation
# [3] = test system: Mouse Leukemia L1210 cells; test: Treatment of mouse Leukemia L1210 (survival of intraperitoneally inoculated mice); format: in vivo; settings: for No. of mice that survived 60 days: groups of 8 mice; for T/C %: observed 60 days
# Method: […] Mouse Leukemia L1210 cells were inoculated intraperitoneally to groups of 8 mice each. The test compound dissolved in physiological saline solution was intraperitoneally administered once daily for 9 consecutive days, starting on the day inoculation. The animals were raised and observed for 60 days to determine survival rates (%). The survival rates were calculated from the following equation:
# T [average period (in days) of survival for the treatment group] X 100
# C [average period (in days) for survival for the non-treatment group]
# The average survival period for the control (non-treatment group was 7.6 go 8.9 days.
# The test results are shown in Table 1 along with those on (-)-spergualin.
# Table 1:Efficacy of (-)-15-deoxyspergualin in the treatment of mose Leukemia L1210
# [4] = 0.05 mg/kg/day i.p. once daily for 9 days
# [5] = 0.10 mg/kg/day i.p. once daily for 9 days
# [6] = 0.20 mg/kg/day i.p. once daily for 9 days
# [7] = 0.39 mg/kg/day i.p. once daily for 9 days
# [8] = 0.78 mg/kg/day i.p. once daily for 9 days
# [9] = 1.56 mg/kg/day i.p. once daily for 9 days
# [10] = 3.13 mg/kg/day i.p. once daily for 9 days
# [11] = 6.25 mg/kg/day i.p. once daily for 9 days
# [12] = 12.5 mg/kg/day i.p. once daily for 9 days
# [13] = 25 mg/kg/day i.p. once daily for 9 days
# [14] = 50 mg/kg/day i.p. once daily for 9 days
smiles,measurement,setting,value
"N=C(N)NCCCCCCC(=O)NC(O)C(=O)NCCCCNCCCN (single isomer, unassigned; (-)) [(-)-15-Deoxyspergualin, (-)-15-deoxyspergualin]",stability to alkalis and acids,Chemical stability; alkalis and acids,very unstable
same,stability in the form of a free base,Chemical stability; free base,unstable
same,"antibacterial activity against Bacillus subtilis PCI-219, % of that of (-)-spergualin",[1],134%
same,carcinostatic action,[2],markedly better carcinostatic action
same,No. of mice that survived 60 days,[3]; [4],0/8
same,T/C %,[3]; [4],129%
same,No. of mice that survived 60 days,[3]; [5],0/8
same,T/C %,[3]; [5],138%
same,No. of mice that survived 60 days,[3]; [6],6/8
same,T/C %,[3]; [6],>664%
same,No. of mice that survived 60 days,[3]; [7],6/8
same,T/C %,[3]; [7],>629%
same,No. of mice that survived 60 days,[3]; [8],8/8
same,T/C %,[3]; [8],>789%
same,No. of mice that survived 60 days,[3]; [9],2/8
same,T/C %,[3]; [9],>493%
same,No. of mice that survived 60 days,[3]; [10],2/8
same,T/C %,[3]; [10],>526%
same,No. of mice that survived 60 days,[3]; [11],0/8
same,T/C %,[3]; [11],408%
"N=C(N)NCCCC[C@H](O)CC(=O)NC(O)C(=O)NCCCCNCCCN (single isomer, unassigned; (-)) [(-)-Spergualin, (-)-spergualin, reference compound]",No. of mice that survived 60 days,[3]; [8],0/8
same,T/C %,[3]; [8],107%
same,No. of mice that survived 60 days,[3]; [9],1/8
same,T/C %,[3]; [9],>301%
same,No. of mice that survived 60 days,[3]; [10],3/8
same,T/C %,[3]; [10],>441%
same,No. of mice that survived 60 days,[3]; [11],8/8
same,T/C %,[3]; [11],>732%
same,No. of mice that survived 60 days,[3]; [12],4/8
same,T/C %,[3]; [12],>586%
same,No. of mice that survived 60 days,[3]; [13],0/8
same,T/C %,[3]; [13],334%
same,No. of mice that survived 60 days,[3]; [14],0/8
same,T/C %,[3]; [14],295%

# Source: patent publication EP0094632A1, “(-)-15-Deoxyspergualin, a process for the preparation of the same, and a pharmaceutical composition containing the same” (priority 1982, dated 1983)
